From a melting point compilation (Tetko et al.; mined from patent text by program, amines drawn as free bases though some values may be those of a salt)

| melting point [°C] | Compound |
| --- | --- |
| 149 to 150 | CCOC(=O)C1=C(C)NC(c2ccc(C)cc2)=C(C(=O)OCC)C1c1cccc([N+](=O)[O-])c1 (centres undefined) |
| 69 to 70 | CN(C)CCCOc1ccc2c(=O)c3ccc(OCCCN(C)C)cc3oc2c1 |
| 89 to 93 | FC(F)(F)c1cc(CO[C@H]2CCCN(Cc3ccccc3)[C@H]2c2ccccc2)cc(C(F)(F)F)c1 |
| 271 | COc1ccc(-c2cc(-c3nc(C)cs3)c(=O)n(C)c2-c2ccnnc2)cc1 |
| 161 to 163 | CCC(CC)(CO)NC(=S)NC(=O)c1ccccc1 |
| 176 to 178 | COC1(OC)CC(Nc2ncnc3c2ncn3C2OC(CO)C(O)C2O)NC1=O (centres undefined) |
| 186 to 189 | CC(=O)c1c(C)c(NC(=O)OCC(Cl)(Cl)Cl)c(C)c2c1OCC2c1ccc(C(C)C)cc1 (centres undefined) |
| 180 | COc1ccc2c(C(=O)O)cccc2c1 |
| 207 | CCOC(=O)c1ncc2[nH]c3cccc(Oc4ccc(Cl)cc4)c3c2c1COC |
| 115 to 116 | BrC1Cn2cccc2Sc2ccccc21 (centres undefined) |
| 262 to 264 | COc1ccc(-c2cc3c(s2)c(=O)c(S(C)=O)cn3C)cc1 (centres undefined) |
| 97 | CC(=O)n1ncc2c(OCc3ccccc3)cccc21 |
| 273 to 274 | Nc1cc(C(=O)O)cc(S(N)(=O)=O)c1Nc1ccc(Cl)cc1 |
| 101 | CC(NSC(=O)OC(C)(C)C)C(=O)n1c(=O)[nH]c2ccccc21 (centres undefined) |
| 86 to 87 | CN(C)c1cccc(S(=O)Nc2ccccc2)c1 (centres undefined) |
| 72 to 74 | NN=CNCCCCNC(=O)[C@@H]1CCCN1C(=O)[C@@H](CCC(N)=O)NS(=O)(=O)c1ccc2ccccc2c1 |
| 201 | C[C@@H](n1cnc2cc(N(C)C)ccc2c1=O)[C@](O)(Cn1cncn1)c1ccc(F)cc1F |
| 210 to 213 | OCc1ccc(-c2ccc3nnn(Cc4ccc(F)cc4)c3n2)cc1 |
| 180 to 181 | CC(CSC(=O)c1ccccc1)C(=O)N(CC(=O)O)C1CCC(c2ccccc2)CC1 (centres undefined) |
| 98 to 99 | Cc1cc(-c2ccccc2)nn1C(C)C(=O)N(C)C (centres undefined) |
| 46 to 49 | CCCCCCCCCCCCCCCCNC(=O)C=CC(=O)O |
| 178 to 180 | Cc1ccc(S(=O)(=O)OCC2COc3ccc(N)c(N)c3O2)cc1 (centres undefined) |
| 148 to 160 | CC(=O)CCCCC(=O)Nc1ccc(CCC(=O)O)cc1 |
| 207 to 208 | Clc1ccc(N2CCN(Cc3n[nH]c4c3CCc3ccccc3-4)CC2)nc1 |

| melting point [°C] | Compound |
| --- | --- |
| 191 to 193 | CC(CCCCC(=O)O)C1CCC2C3CCC4CC(O)CCC4(C)C3CC(O)C12C (centres undefined) |
| 183 to 184 | CS(=O)(=O)c1ccc(-c2cnn(Cc3ccc([N+](=O)[O-])cc3)c(=O)c2-c2ccc(F)cc2)cc1 |
| 110 to 114 | Cn1c(-c2ccc(-c3cccs3)cc2)cnc1[C@H](Cc1ccccn1)N(C=O)c1cc2cc(Cl)ccc2o1 |
| 167 | COCCCN1CCC(CNC(=O)c2cc(Cl)c(N)n3cc(C)nc23)CC1 |
| 88 to 91 | CN(C)C1CNc2c(cc(Br)cc2[N+](=O)[O-])C1 (centres undefined) |
| 42.5 to 43 | CCCCCCCCCCCCCCCNC(=O)OCC(CO)OC (centres undefined) |
| 263 to 266 | CC(=O)NNc1ccnc2c(NC(=O)c3c(Cl)cccc3Cl)cc(C)cc12 |
| 71 to 73 | COC(=O)c1cc(C)cc(C=O)c1 |
| 164 to 167 | O=C(COc1cccc(CCNC(=O)OCc2ccccc2)c1)Nc1nnn[nH]1 |
| 215 to 217 | CC(C)C(S)C(=O)NC1(C(=O)NC(Cc2ccc(-c3ccsc3)nc2)C(=O)O)CCCC1 (centres undefined) |
| 213 to 216 | CC1COc2c(N3CCC(CN)C3)c(F)cc3c(=O)c(C(=O)O)cn1c23 (centres undefined) |
| 115 | CC(C)(C)OC(=O)NCCNC(=O)c1ncsc1-c1cccc(OCc2cccc(C#N)c2)c1 |
| 159 to 160 | O=c1ccn(-c2cccc(OC(F)F)c2)nc1-c1ccnn1-c1ccccc1 |
| > 250 | O=C(O)Cn1cc(C(=O)O)c(=O)c2ccccc(=O)c21 |
| 86 | CC(C)OC(=O)C(=C1SC=CS1)c1ccc(F)cc1 |
| 132 to 134 | COc1cccc(N2CCN(Cc3cn4cc(Cl)ccc4n3)CC2)c1 |
| 116 to 118 | COc1cc(C(C)C)c2c(c1)S(=O)(=O)N(COc1cc(C(F)(F)F)nn1Cc1ccccc1)C2=O |
| > 300 | CCCn1c(=O)n(Cc2ccccc2)c(=O)c2nc(-c3ccc(/C=C/C(=O)O)cc3)[nH]c21 |
| 82 to 83 | O=C1c2ccc(CCCCc3ccccc3)cc2CCN1O |
| 102 to 104 | O=C(Oc1ccccc1)c1cc(Cl)c2ccccc2c1O |
| 34 to 37 | CCCCCCCCCCCCCCCCCCSC(C)(C)C(=O)CC(=O)OCC |
| 163 to 165 | O=Cc1coc2cc(OCCCN3CCC(c4noc5cc(F)ccc45)CC3)ccc2c1=O |
| 105 | CC(=O)Nc1ccc2c(c1)CCCCC2=O |

Second part, the compound before the results:

| Compound | melting point [°C] |
| --- | --- |
| Cc1cccc(NC(=O)NC2C(=O)N(C)c3ccccc3N(C34CC5CC(CC(C5)C3)C4)C2=O)c1 (centres undefined) | 245 to 247 |
| CC(=O)NCC#CCn1ccnc1 | 93 to 95 |
| C=CCOc1cc(C)c2c(C)cc(=O)oc2c1 | 178 |
| COCOc1cc(OCOC)c(C(=O)C=Cc2cc(OC)c(OCOC)c(OC)c2)c(O)c1CC=C(C)C | 91.2 to 92 |
| Cc1c(Cl)cccc1Nc1ncccc1C(=O)OCOC(=O)C(C)(C)C | 90 to 91 |
| C#Cc1ccc(Oc2cc(C(=O)Cl)cc(C(=O)Cl)c2)cc1 | 68 to 69 |
| CC(C)(C)NC(=O)N1CCn2c(Cl)c(-c3ccccc3)c(C(N)=O)c2C1 | 192 to 195 |
| O=C(NCc1ccc(Cl)cc1)n1cc(Br)cnc1=O | 158 to 160 |
| NC(=O)N(O)Cc1ccc(OCCc2csc(-c3ccc(C(F)(F)F)cc3)n2)cc1 | 146 to 147 |
| COc1ccc(SCCCCNC(P(=O)(O)O)P(=O)(O)O)cc1 | 188 to 189 |
| N#Cc1ccc(C(=C2CCCCCC2)c2ccc(O)cc2)cc1 | 110 to 111 |
| COc1cc(Nc2nccc(NC3CCN(Cc4ccccc4)CC3)n2)cc(OC)c1OC | 136 |
| CNC(=O)Cn1c(=O)c(=O)[nH]c2cc(C(F)(F)F)c(-n3cccc3)cc21 | > 250 |
| COc1cc2ncnc(N3CCN(C(=O)Nc4ccc(N(C)C)cc4)CC3)c2cc1OC | 252 to 254 |
| CCOC(=O)Cn1c(-c2ccccn2)nc2cccnc21 | 109 to 111 |
| C#CCN(Cc1cc2c(=O)[nH]c(COC(C)=O)nc2cc1Cl)c1ccc(C(=O)OC(C)(C)C)cc1 | 219 to 220 |
| COc1ccc2c(c1)CCC1CCNC(=O)C(CC(=O)NC(C)C)=C21 (centres undefined) | 213 to 216 |
| CCOC(=O)Cc1c(-c2ccccc2)c2cc3c(cc2oc1=O)C(=O)OC3 | 222 to 223 |
| COc1cc(OC)c(CN2CCc3cc(O)c(OC)cc3C2)c(OC)c1 | 150 to 151 |
| CC(=O)Oc1cccc(-c2cc(-c3ccncc3)c(C#N)c(=O)[nH]2)c1 | 284 to 286 |
| COc1ccccc1OCCCc1nc(-c2ccc(Cl)cc2)co1 | 94 to 95 |
| CCN1C(=O)CN=C(c2ccccc2F)c2cc(C(C)N)ccc21 (centres undefined) | 53 to 55 |
| CC(C)NC(=O)c1coc(CN2C(=O)C3(COc4cc5c(cc43)OCO5)c3ccccc32)n1 (centres undefined) | 182 to 183 |
| Oc1cc(Cl)c(N2CCOCC2)cc1Oc1ccc(Cl)cc1Cl | 187 to 188 |
| N#CC1CN1C(=O)C1(c2ccc(Cl)cc2)CCCC1 (centres undefined) | 80 to 82 |
| COC(=O)/C=C(C)/C=C/C1(c2cc3c(cc2C)C(C)(C)CCC3(C)C)CC=CS1 (centres undefined) | 152 to 153 |

| Compound | melting point [°C] |
| --- | --- |
| CCOC(=O)C(Cc1cn(C)c2c(Cl)cccc12)(NC=O)C(=O)OCC | 83 to 87 |
| COc1cc(C=CC(=O)OC2C(O)C=C(C)C(=O)CC2(C)C)ccc1O (centres undefined) | 125 to 127 |
| CC(=O)c1cc2c(s1)C(C)(C)CCC2(C)C | 53 to 55 |
| O=C1CC(C(=O)Nc2ccccc2O)CN1 (centres undefined) | 133 to 135 |
| Nc1ccccc1C(=O)NCCCn1ccnc1 | 107 to 110 |
| COc1ccc(C(O)CCN2CC=C(c3ccc(Cl)cc3)CC2)c(OC)c1 (centres undefined) | 112 to 114 |
| CCOC(=O)c1c(-c2ccccc2)nn2c1-c1ccccc1CC2 | 84 to 85 |
| CCCCOC(Cc1ccc(OCCN2c3ccccc3Oc3ccccc32)cc1)C(=O)O (centres undefined) | 84 to 88 |
| O=c1c2cc(F)ccc2[nH]c(=S)n1-c1ccccc1Cl | 295 to 297 |
| COc1cc(OC)cc(N2CCN(C(=S)Nc3cc4c(nc3OC)CCC4)CC2)c1 | 169 to 170 |
| C=CCSc1nc(-c2ccc(OC)cc2)c(-c2ccc(OC)cc2)s1 | 57 to 58 |
| ON=Cc1ccc2c(c1)ncn2-c1cccc(N2CCCCC2)c1 | 213 to 214 |
| Cc1ccc(CCc2n[nH]c3c2c(=O)n(-c2ccccc2)c2ncccc32)cc1 | 264 to 265 |
| CN(C)C(=N)c1c(Cl)cc(N=Cc2ccc(N(C)C)cc2F)cc1Cl | 127 to 128 |
| O=C(C(=O)N1C(=O)CC[C@H]1C(=O)O)c1ccccc1 | 151 to 152 |
| CC(C)OC(=O)Cn1c(=O)n(C)c(=O)n(-c2cc(N3C(=O)C4CS(=O)CCN4C3=O)c(F)cc2Cl)c1=O (centres undefined) | 175 to 180 |
| CC1(C)CCC(=O)Nc2cc(Nc3ncc4cc5ccccc5n4n3)ccc21 | 230 to 240 |
| Cc1nc(N2CCN(Cc3ccccc3)C2=N)sc1C(=O)NCc1ccccc1 | 125 to 126 |
| CCCCCCN(C)C(=O)c1cccc(CN2C(=O)C3(COc4cc5c(cc43)CCO5)c3ccccc32)c1 (centres undefined) | 73 to 74 |
| Cc1cccc(-c2cnc3c(N)ncnc3n2)c1 | 248 to 250 |
| CC(C)(O)C1CCC(CNC(=O)c2cccnc2Oc2ccc(F)cc2)CC1 (centres undefined) | 78 to 80 |
| Cc1cc2c(s1)N(C(C)C)c1ccccc1N=C2N1CCN(C)CC1 | 120 to 121 |
| O=c1cc(CCCCBr)c2ccccc2[nH]1 | 156 to 158 |
| CCCCCCCCCCCCCCCCCCOc1cccc(NCC(=O)O)c1 | 92 |
| CC(CCCn1cc(CCO)c(=O)[nH]c1=O)C(=O)O (centres undefined) | 105 |
| COc1cc(C(=O)O)ccc1Cn1ccc2ccc(CC(=O)NCC3CCCC3)cc21 | 188 to 189 |
